Data as given in patent US6921810B2, “Bifunctional antibiotics” (The Scripps Research Institute, priority 2000, dated 2005).
Converted amounts (≈) assume the structure as drawn.

Tests used:
AAC(6′)-Ii = AAC(6′)-Ii (Enterococcus faecium, UniProt Q47764); assay: Aminoglycoside-modifying enzyme kinetics, AAC(6′)-Ii; assay type: biochemical; conditions: in words
Experimental: (§1) They were in fact potent competitive inhibitors of the APH(2″) activity, Kis=0.8 μM for dimer 4, 0.1 μM for 6 and 0.7 μM for 27.
(§2) BF refers to the bifunctional enzyme AAC(6′)-APH(2″), where the particular activity is indicated. The neamine data were obtained from Daigle, D. M.; et al. Chem. Biol. 1999, 6, 99.

[1] = test system: E. coli 16S rRNA A-site (AS-wt); assay: Surface plasmon resonance binding to immobilized biotinylated A-site rRNA; conditions: SPR; for Kd: AS-wt; for affinity for AS-wt relative to neamine: compared with neamine
Experimental: The dissociation constant (Kd) and binding stoichiometry were determined using surface plasmon resonance (SPR) against an immobilized rRNA sequence modeling the A-site of prokaryotic rRNA (FIGS. 1-4) (Hendrix, M.; et al. J. Am. Chem. Soc. 1997, 119, 3641; Wong, C.-H.; et al. Chem. Biol. 1998, 5, 397). […] We focused on neamine as it represents the simplest effective aminoglycoside antibiotic and contains the key β-hydroxyamine motif for interaction with the phosphodiester group and the Hoogsteen face of guanine residues in RNA (FIG. 2) (Hendrix, M.; et al. Angew. Chem., Int. Ed. Engl. 1997, 36, 95). […] Various dimers of neamine were therefore constructed in order to identify a bivalent aminoglycoside that would bind AS-wt with high affinity (FIG. 4), and at the same time resist and/or inhibit the modifying enzymes due to its unnatural structure (Some aminoglycoside dimers were prepared previously; however, the monomers bind the A-site stoichiometrically: see Michael; K.; et al. Bioorg. Med. Chem. 1999, 7, 1361; for vancomycin dimers, see Rao, J.; Whitesides, G. H. J. Am. Chem. Soc. 1997, 119, 10286; Sundram, U. N.; et al. J. Am. Chem. Soc. 1996, 118, 13107).
Reactions were performed under inert atmosphere unless otherwise stated. THF and CH2Cl2 were distilled under Ar with benzophenone ketyl and CaH2, respectively. NMR spectra were obtained on a Bruker AMX-400. The sites of enzymatic modification of neomycin and gentamicin that cause drug resistance are shown in FIG. 1 (Daigle, D. M.; et al. Chem. Biol. 1999, 6, 99). Synthesis of biotinylated RNAs and surface plasmon resonance experiments were performed as previously described and Kd values were also calculated as previously described (FIG. 2) (Hendrix, M.; et al. J. Am. Chem. Soc. 1997, 119, 3641).

APH(3′)-IIIa = APH(3′)-IIIa (Enterococcus faecalis, UniProt P0A3Y5); assay: Aminoglycoside-modifying enzyme kinetics, APH(3′)-IIIa; assay type: biochemical; conditions: in words
Experimental: as §1, §2

[2] = target: APH(2″) activity of AAC(6′)-APH(2″) (Staphylococcus aureus, UniProt P0A0C1); assay: Aminoglycoside-modifying enzyme kinetics, APH(2″) activity of the bifunctional enzyme; assay type: biochemical; conditions: for substrate for APH(2″) activity: in words
Experimental: as §1, §2

E. coli ATCC 25922 = assay: Antimicrobial testing (MIC, NCCLS M7-A4); assay type: cell-based; conditions: Escherichia coli, ATCC25922; E. coli reference strain
Experimental: (§3) Antimicrobial Testing: The Kirby-Bauer Disk assay was performed as previously described (Hendrix, M.; et al. J. Am. Chem. Soc. 1997, 119, 3641; Phillips, I.; Williams, D. In Laboratory Methods in Antimicrobial Chemotherapy; Gerrod, L., Ed.; Churchill Livingstone Press: Edinburg, 1978; pp 3-30). Reference strains E. coli ATCC 25922 and S. aureus ATCC 25923 were obtained as lyophilized pellets (Difco). MIC testing was performed as recommended in the NCCLS Publication M7-A4.

[3] = target: AAC(6′) activity of AAC(6′)-APH(2″) (Staphylococcus aureus, UniProt P0A0C1); assay: Aminoglycoside-modifying enzyme kinetics, AAC(6′) activity of the bifunctional enzyme; assay type: biochemical; conditions: in words
Experimental: as §1, §2

[4] = test system: NCC1OC(OC2C(N)CC(N)C(O)C2OCC(=O)NCCCCCNC(=O)COC2C(O)C(N)CC(N)C2OC2OC(CN)C(O)C(O)C2N)C(N)C(O)C1O; assay: Km as substrate for the AAC(6′) acetyltransferase activity of the bifunctional enzyme AAC(6′)-APH(2″) (BF); assay type: biochemical; conditions: other: acetyltransferase activity of the bifunctional enzyme (BF)
Experimental: as §1, §2

[5] = test system: CN(CCCCN(C)CC(O)COC1C(O)C(N)CC(N)C1OC1OC(CN)C(O)C(O)C1N)CC(O)COC1C(O)C(N)CC(N)C1OC1OC(CN)C(O)C(O)C1N; assay: as above; assay type: biochemical; conditions: other: acetyltransferase activity of the bifunctional enzyme (BF)
Experimental: as §1, §2

[6] = test system: NCC1OC(OC2C(N)CC(N)C(O)C2OCC(=O)NCCCNC(=O)COC2C(O)C(N)CC(N)C2OC2OC(CN)C(O)C(O)C2N)C(N)C(O)C1O; assay: as above; assay type: biochemical; conditions: other: acetyltransferase activity of the bifunctional enzyme (BF)
Experimental: as §1, §2

[7] = test system: tobramycin-resistant strain of P. aeruginosa from cystic fibrosis patients; assay: Antibiotic activity against a tobramycin-resistant strain; assay type: cell-based; conditions: compared with tobramycin
[8] = test system: S. aureus ATCC 33591-MRSA; assay: Antibiotic activity against other strains; assay type: cell-based; conditions: in words
Experimental: as §3

P. aeruginosa, PAO-1 = assay: Antibiotic activity against other strains; assay type: cell-based; conditions: in words
Experimental: as §3

S. aureus ATCC 29213 = assay: Antibiotic activity against other strains; assay type: cell-based; conditions: in words
Experimental: as §3

E. faecalis ATCC 29212 = assay: Antibiotic activity against other strains; assay type: cell-based; conditions: in words
Experimental: as §3

P. aeruginosa ATCC 27853 = assay: Antibiotic activity against other strains; assay type: cell-based; conditions: in words
Experimental: as §3

[9] = test system: NCC1OC(OC2C(N)CC(N)C(O)C2OCC(=O)NCCCCCNC(=O)COC2C(O)C(N)CC(N)C2OC2OC(CN)C(O)C(O)C2N)C(N)C(O)C1O; assay: Km as substrate for APH(3′)-IIIa (3′-O-phosphorylation); assay type: biochemical; conditions: other: 3′-O-phosphorylation
Experimental: as §1, §2

[10] = test system: CN(CCCCN(C)CC(O)COC1C(O)C(N)CC(N)C1OC1OC(CN)C(O)C(O)C1N)CC(O)COC1C(O)C(N)CC(N)C1OC1OC(CN)C(O)C(O)C1N; assay: as above; assay type: biochemical; conditions: other: 3′-O-phosphorylation
Experimental: as §1, §2

[11] = test system: NCC1OC(OC2C(N)CC(N)C(O)C2OCC(=O)NCCCNC(=O)COC2C(O)C(N)CC(N)C2OC2OC(CN)C(O)C(O)C2N)C(N)C(O)C1O; assay: as above; assay type: biochemical; conditions: other: 3′-O-phosphorylation
Experimental: as §1, §2

[12] = test system: NCC1OC(OC2C(N)CC(N)C(O)C2OCC(=O)NCCCCCNC(=O)COC2C(O)C(N)CC(N)C2OC2OC(CN)C(O)C(O)C2N)C(N)C(O)C1O; assay: Km as substrate for AAC(6′)-Ii (6′-N-acetylation); assay type: biochemical; conditions: other: 6′-N-acetylation
Experimental: as §1, §2

[13] = test system: CN(CCCCN(C)CC(O)COC1C(O)C(N)CC(N)C1OC1OC(CN)C(O)C(O)C1N)CC(O)COC1C(O)C(N)CC(N)C1OC1OC(CN)C(O)C(O)C1N; assay: Km as substrate for AAC(6′)-Ii (6′-N-acetylation); assay type: biochemical; conditions: other: 6′-N-acetylation
Experimental: as §1, §2

[14] = test system: NCC1OC(OC2C(N)CC(N)C(O)C2OCC(=O)NCCCNC(=O)COC2C(O)C(N)CC(N)C2OC2OC(CN)C(O)C(O)C2N)C(N)C(O)C1O; assay: Km as substrate for AAC(6′)-Ii (6′-N-acetylation); assay type: biochemical; conditions: other: 6′-N-acetylation
Experimental: as §1, §2

Chain of AAC(6′) activity of AAC(6′)-APH(2″) (P0A0C1 whole entry): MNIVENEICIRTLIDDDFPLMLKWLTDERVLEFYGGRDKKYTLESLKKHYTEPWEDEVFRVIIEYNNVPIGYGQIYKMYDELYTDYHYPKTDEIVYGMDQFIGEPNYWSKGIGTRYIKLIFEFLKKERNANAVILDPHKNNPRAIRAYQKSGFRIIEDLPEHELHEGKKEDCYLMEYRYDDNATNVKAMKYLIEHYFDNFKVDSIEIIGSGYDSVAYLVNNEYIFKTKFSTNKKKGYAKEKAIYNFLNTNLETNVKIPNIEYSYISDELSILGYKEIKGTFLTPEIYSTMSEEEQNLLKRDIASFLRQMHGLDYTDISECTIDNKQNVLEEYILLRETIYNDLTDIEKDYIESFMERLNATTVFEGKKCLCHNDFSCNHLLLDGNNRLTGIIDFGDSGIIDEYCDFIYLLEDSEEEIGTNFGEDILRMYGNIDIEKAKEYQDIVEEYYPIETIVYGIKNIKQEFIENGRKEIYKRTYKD
Chain of APH(2″) activity of AAC(6′)-APH(2″) (P0A0C1 whole entry): as above
Chain of AAC(6′)-Ii (Q47764 entry or part of it): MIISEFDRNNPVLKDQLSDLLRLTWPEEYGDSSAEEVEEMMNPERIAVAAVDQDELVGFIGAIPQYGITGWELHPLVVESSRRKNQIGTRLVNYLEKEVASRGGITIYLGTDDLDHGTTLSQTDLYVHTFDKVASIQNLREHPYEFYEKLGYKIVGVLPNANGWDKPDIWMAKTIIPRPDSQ
Chain of APH(3′)-IIIa (P0A3Y5 whole entry): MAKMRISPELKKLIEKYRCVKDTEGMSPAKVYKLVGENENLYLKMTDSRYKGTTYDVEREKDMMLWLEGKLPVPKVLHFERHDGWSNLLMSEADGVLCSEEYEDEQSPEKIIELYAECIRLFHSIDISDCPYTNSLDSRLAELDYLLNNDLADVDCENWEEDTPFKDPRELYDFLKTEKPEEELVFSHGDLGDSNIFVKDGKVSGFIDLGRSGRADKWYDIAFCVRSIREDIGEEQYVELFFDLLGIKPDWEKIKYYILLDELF

| Molecule | substrate for AAC(6′)-Ii (AAC(6′)-Ii) | Kd ([1]; for neamine per binding site) [nM] | substrate for APH(3′)-IIIa (APH(3′)-IIIa) | Ki [2] [nM] | substrate for APH(2″) activity [2] | MIC (E. coli ATCC 25922) [µM] | substrate for AAC(6′) activity of bifunctional enzyme [3] | other results |
| --- | --- | --- | --- | --- | --- | --- | --- | --- |
| NCC1OC(OC2C(N)CC(N)C(O)C2OCC(=O)NCCCNC(=O)COC2C(O)C(N)CC(N)C2OC2OC(CN)C(O)C(O)C2N)C(N)C(O)C1O (stereo not drawn) [Dimer 4, N,N′-1,3-bis(5-Ethylcarboxyl-neamine)propylamide] | poor substrates | 1100 | poor substrates | 800 | not substrates | 31 (≈ 24.8 µg/mL) | poor substrates | affinity for AS-wt relative to neamine [1]: ten-fold greater than neamine |
| AAC(6′) activity of the bifunctional aminoglycoside modifying-enzyme AAC(6′)-APH(2″) (Staphylococcus aureus) | – | – | – | – | – | – | – | Km [4]: 4.22 µM; Km [5]: 0.53 µM; Km [6]: 0.84 µM |
| CN(CCCCN(C)CC(O)COC1C(O)C(N)CC(N)C1OC1OC(CN)C(O)C(O)C1N)CC(O)COC1C(O)C(N)CC(N)C1OC1OC(CN)C(O)C(O)C1N (stereo not drawn) [Dimer 27] | poor substrates | – | poor substrates | 700 | not substrates | 6.25 (≈ 5.46 µg/mL) | poor substrates | Kd [1]: 40 nM; effectiveness relative to tobramycin [7]: 3 times; antibiotic activity [8]: effective; antibiotic activity (P. aeruginosa, PAO-1): effective; antibiotic activity (S. aureus ATCC 29213): effective; antibiotic activity (E. faecalis ATCC 29212): effective; antibiotic activity (P. aeruginosa ATCC 27853): effective |
| NC[C@H]1O[C@H](O[C@H]2[C@H](O)[C@@H](O)[C@H](N)C[C@@H]2N)[C@H](N)[C@@H](O)[C@@H]1O [neamine, reference compound] | – | 10000 | – | – | – | – | – | – |
| APH(3′)-IIIa (Enterococcus faecalis) | – | – | – | – | – | – | – | Km [9]: 2.66 µM; Km [10]: 1.1 µM; Km [11]: 0.82 µM |
| NCC1OC(OC2C(N)CC(N)C(O)C2OCC(=O)NCCCCCNC(=O)COC2C(O)C(N)CC(N)C2OC2OC(CN)C(O)C(O)C2N)C(N)C(O)C1O (stereo not drawn) [Dimer 6, N,N′-1,3-bis(5-Ethylcarboxyl-neamine)pentylamide] | poor substrates | 800 | poor substrates | 100 | not substrates | 125 (≈ 103 µg/mL) | poor substrates | affinity for AS-wt relative to neamine [1]: ten-fold greater than neamine |
| AAC(6′)-Ii (Enterococcus faecium) | – | – | – | – | – | – | – | Km [12]: 83.6 µM; Km [13]: 28.7 µM; Km [14]: 53.4 µM |
